Data published in patent US8455649B2, “Insecticidal substituted azinyl derivatives” (Dow AgroSciences, LLC, priority 2007, dated 2013).

How the values were obtained:
[1] = tested on: Corn Earworm (Helicoverpa zea); test: Insecticidal diet-surface test for corn earworm; type: in vivo; conditions: 120 h, second-instar larvae on treated diet, 50 μg/cm^2 on diet surface, 5 days after treatment, 8 insects per treatment, read-out: HELIZE AVG % Mortality (50 μg/cm^2)
Protocol: (§1) The compounds identified in Table 1 were tested against beet armyworm and corn earworm as follows:
(§2) Insecticidal Test for Corn Earworm (Helicoverpa zea) and Beet Armyworm (Spodoptera exigua).
(§3) To prepare test solution, the test compound was formulated at 2000 ppm solution as 4 mg/2 mL of 9 acetone:1 tap water. 50 μL of the 2000 ppm (equivalent to 50 μg/cm^2 dose on diet surface area) test solution was pipetted upon the surface of 1 mL of lepidopteran diet (Southland Multi-Species Lepidopteran Diet) contained in each of eight wells per insect species (one well=1 replication). A second-instar corn earworm and beet armyworm was placed upon the treated diet in each well once the solvent had air-dried. Trays containing the treated diet and larvae were covered and then held in a growth chamber at 25° C., 50-55% RH, and 16 hr light:8 hr dark for 5 days. Observation were conducted 5 days after treatment and infestation. The number of dead insects of 8 per species per treatment was then determined and the results are given in Table 2 as a percent control at a dose of […].

[2] = tested on: Beet Armyworm (Spodoptera exigua); test: Insecticidal diet-surface test for beet armyworm; type: in vivo; conditions: 120 h, second-instar larvae on treated diet, 50 μg/cm^2 on diet surface, 5 days after treatment, 8 insects per treatment, read-out: LAPHEG AVG % Mortality (50 μg/cm^2)
Protocol: as §1, §2, §3

SMILES | mortality at 50 µg/cm2 [1] [%] | mortality at 50 µg/cm2 [2] [%]
Cc1c(OCC(F)(F)F)nc(NC(=O)N(C)c2ccc(OC(F)(F)F)cc2)nc1OCC(F)(F)F [Compound 142] | 100 | 100
O=C(Nc1nc(OCC(F)(F)F)cc(OCC(F)(F)F)n1)Nc1c(Cl)cc(Br)cc1Cl [Compound 180] | 100 | 100
O=C(Nc1ccc([N+](=O)[O-])cc1)Nc1nc(OCC(F)(F)F)cc(OCC(F)(F)F)n1 [Compound 56] | 100 | 0
CC(C)(C)COCN(C(=O)Nc1nc(OCC(F)(F)F)cc(OCC(F)(F)F)n1)c1ccc(C(F)(F)F)cc1 [Compound 61] | 100 | 100
CN(C)CCN(C(=O)Nc1nc(OCC(F)(F)F)cc(OCC(F)(F)F)n1)c1ccc(OC(F)(F)F)cc1 [Compound 70] | 100 | 100
CC1(COc2cc(OCC(F)(F)F)nc(NC(=O)Nc3ccc(C(F)(F)F)cc3)n2)CC1(Cl)Cl (stereo not shown) [Compound 101] | 100 | 100
Cc1c(OCC(F)(F)F)nc(NC(=O)N(C)c2ccc(C(F)(F)F)cc2)nc1OCC(F)(F)F [Compound 141] | 100 | 100
Cc1c(OCC(F)(F)F)nc(NC(=O)N(C)c2ccc(Br)cc2)nc1OCC(F)(F)F [Compound 140] | 100 | 100
O=C(Nc1nc(OCC(F)(F)F)cc(OCC(F)(F)F)n1)N(c1ccc(OC(F)(F)F)cc1)C(F)(F)F [Compound 93] | 100 | 100
[2H]C([2H])([2H])N(C(=O)Nc1nc(OCC(F)(F)F)cc(OCC(F)(F)F)n1)c1ccc(C(F)(F)F)cc1 [Compound 96] | 100 | 100
CN(C(=O)N(C)c1nc(OCC(F)(F)F)cc(OCC(F)(F)F)n1)c1ccc(C(F)(F)F)cc1 [Compound 12] | 100 | 100
O=C(Nc1ccc(Br)c(F)c1)Nc1nc(OCC(F)(F)F)cc(OCC(F)(F)F)n1 [Compound 72] | 100 | 0
O=C(Nc1ccc(OC(F)(F)F)cc1)N(COCc1ccccc1)c1nc(OCC(F)(F)F)cc(OCC(F)(F)F)n1 [Compound 43] | 100 | 100
CN(C(=O)Nc1cc(OCC(F)(F)F)nc(OCC(F)(F)F)n1)c1ccc(OC(F)(F)F)cc1 [Compound 106] | 100 | 100
CN(C(=O)Nc1cc(OCC(F)(F)F)nc(OCC(F)(F)F)n1)c1ccc(C(F)(F)F)nc1 [Compound 113] | 0 | 100
O=C(O)CN(C(=O)Nc1nc(OCC(F)(F)F)cc(OCC(F)(F)F)n1)c1ccc(OC(F)(F)F)cc1 [Compound 32] | 100 | 100
O=C(Nc1ccc(Br)cc1)N(COCc1ccccc1)c1nc(OCC(F)(F)F)cc(OCC(F)(F)F)n1 [Compound 63] | 100 | 100
CN(C(=O)Nc1nc(OCC(F)(F)F)cc(OCC(F)(F)F)n1)c1ccc(C(F)(F)F)cc1F [Compound 161] | 100 | 100
CON(C(=O)Nc1nc(OCC(F)(F)F)cc(OCC(F)(F)F)n1)c1ccc(Cl)cc1 [Compound 65, N′-[4,6-bis(2,2,2-trifluoroethoxy)pyrimidin-2-yl]-N-(4-chlorophenyl)-N-methoxyurea] | 100 | 100
O=C(Nc1cc(F)c(C(F)(F)F)c(F)c1)Nc1nc(OCC(F)(F)F)cc(OCC(F)(F)F)n1 [Compound 76] | 100 | 100
CN(C(=O)Nc1nc(OCC(F)(F)F)cc(OCC(F)(F)F)n1)c1ccc(C(F)(F)F)cc1 [Compound 31] | 100 | 100
CN(C(=O)Nc1nc(OCC(F)(F)F)cc(OCC(F)(F)F)n1)c1ccc(SC(F)(F)F)cc1 [Compound 80] | 100 | 100
CN(C(=O)Nc1nc(OCC(F)(F)F)cc(OCC(F)(F)F)n1)c1ccc(Cl)cn1 [Compound 124] | 100 | 100
